Key:
[1] = system: lesions of papillomatous digital dermatitis (PDD); test: Effect of various treatments on lesions of papillomatous digital dermatitis in Holstein cows; assay type: in vivo; settings: for No. of cows assessed: Responded / No. of lesions assessed: Responded: complete therapeutic response, assessed at post-treatment days 7, 14 and 21, herds 5 to 7; for Mean therapeutic response time: determined by desiccation and keratinization of surfaces and absence of pain
Method: (§1) The effect of various treatments was assessed on a total of 72 lesions of PDD in 35 cows in […] (herds 4 and 5-7). Treatments consisted of procaine penicillin G (G. C. Hanford Manufacturing Co., Syracuse, N.Y.), 18,000 units/kg IM BID for 3 days (7 cows); ceftiofur sodium (Naxcel®, The Upjohn Co., Kalamazoo, Mich.), 2 mg/kg daily for 3 days (14 cows); oxytetracycline (Terramycin—343®Pfizer Animal Health, N.Y.), single topical application of approximately 5 g of soluble powder bandaged directly onto a clean lesion for 7 days (3 cows); formadelhyde (Fisher Scientific, Pittsburg, Pa.), 39% v/v, single topical application (5 cows); hydrochloric acid (Fisher Scientific, Pittsburg, Pa.), 36% v/v, single topical application (4 cows); surgical excision (4 cows); and chlorodifluoromethane, dimethylether (Brand Spray, Stockman Products Ltd., Castledown, Isle of Man, UK), 2 minutes of topical cryogenic spray until lesion and margin were frozen solid and white (1 cow). Two cows which received no, treatment served as untreated controls. Therapeutic response was assessed at post treatment days: 7 (4 cows), 7 and 14 (23 cows) and 7, 14 and 21 (7 cows). Therapeutic response was considered complete if there was entire transformation of moist, red, raw, prone-to-bleed, painful surfaces to dry, dark brown, firm, rubbery, keratinacious, non-painful surfaces adherent to underlying pink healthy-appearing skin. […] Another 6 lesions of PDD in 4 cows in herd 4 were reexamined 5 weeks after total surgical excision.

[2] = system: lesions of papillomatous digital dermatitis (PDD); test: Prevalence of recurrent and new PDD lesions at follow-up examination of treated cows; assay type: in vivo, Holstein cows; settings: for Recurrence and new-lesion development (in words): 7-12 weeks after complete response; for New: Cows n / New: Lesions n: lesion at a previously non-affected site; for New: Cows n / New: Lesions n / Recurrent: Cows n / Recurrent: Lesions n: cows that completely responded 7-12 weeks before follow-up; for Recurrent: Cows n / Recurrent: Lesions n: recurrence at a previously responsive affected site
Method: as §1

Compound	No. of cows assessed: Responded [1]	No. of lesions assessed: Responded [1]	Mean therapeutic response time [1]	Incomplete responses, number of cows ([1]; in vivo)	Recurrence and new-lesion development (in words) [2]	New: Cows n [2]	New: Lesions n [2]	Recurrent: Cows n [2]	Recurrent: Lesions n [2]	Therapeutic response of PDD lesions (in words) ([1]; in vivo)
CO/N=C(\C(=O)N[C@@H]1C(=O)N2C(C(=O)O)=C(CSC(=O)c3ccco3)CS[C@H]12)c1csc(N)n1 [Ceftiofur IM, ceftiofur sodium]	13	41	11.1 ± 4.5 days	2 cows	Recurrence and new-lesion-development were observed	2	2	4^|	6	–
Cl [Hydrochloric acid (35%), hydrochloric acid]	2	3	7 days	2 cows	New lesions occurred	2	3	0^	0	persistence of small painful deep ulcers
C=O [Formaldehyde (39%), formadelhyde]	5	8	7 days	–	–	0	0	0^	0	–
CN(C)[C@@H]1C(O)=C(C(N)=O)C(=O)[C@@]2(O)C(O)=C3C(=O)c4c(O)cccc4[C@@](C)(O)[C@H]3[C@H](O)[C@@H]12 [Oxytetracycline, topical, oxytetracycline]	3	4	7 days	–	–	–	–	–	–	–
procaine penicillin G [Penicillin G procaine IM]	7	9	8.2 ± 2.5 days	–	Recurrence and new-lesion-development were observed	2	4	1^|	1	–

— patent publication US20030086947A1, “Vaccine against papillomatous digital dermatitis (PDD)” (TOWNSEND AND TOWNSEND AND CREW, priority 1997, published 2003)
